Blank lines part the entries; values can stand above or below the compound they belong to. Starred links: 1 amine or outer side, 2 acyl side, 3 side chain; linkers in the order of their positions; H or OH if unused. Positions of bridges follow the written chain, without caps; N, C: chain ends. Residues, ends and D or L forms follow the SMILES beside them. *: point of attachment. C18 diacid = O=C(O)CCCCCCCCCCCCCCCCC(=O)*; γGlu = O=C(O)[C@H](CCC(=O)[*:2])N[*:1]
How the values were obtained:
[1] = PK after i.v. and s.c. administration to domestic LYD pig; conditions: female, domestic LYD pig, pig, in vivo, sc
Method: The purpose of this study was to investigate pharmacokinetic and pharmacodynamic properties after intravenous (i.v.) and subcutaneous (s.c.) administration to Gottingen Minipig and domestic LYD pig, and to estimate bioavailability after s.c. dosing. Quantitative plasma analysis of CNP and cGMP levels were performed as described in
Animals and dosing: The pharmacokinetic and pharmacodynamic studies in Gottingen Minipig or domestic LYD pig were conducted at CRO Minerva Imaging or Novo Nordisk A/S, respectively. CNP compounds were dosed to normal female 1) Gottingen minipigs 6-12 months of age with an average weight of 22 kg or 2) domestic LYD pigs 4-5 months of age with and average weight of 80 kg. At least one week prior to dosing, permanent central venous catheters were implanted for blood sampling and intravenous (i.v.) dosing. For subcutaneous (s.c.) dosing, the pigs were ultrasound scanned and the optimal injection area laterally on the neck marked by a permanent tattoo. An insulin pen (NovoPen Echo or NovoPen 4) and insulin needle (NovoFine 32G/4 mm or NovoTwist 32G/5 mm) were used for accurate deposition of the CNP formulations in the subcutaneous fat tissue with the needle perpendicular to the skin.
CNP compounds were formulated according to the principles in General Methods of Preparation—Method G and were either A) 8 mM sodium phosphate, 250 mM glycerol, pH 6.5, B) 5 mM sodium acetate, 250 mM glycerol, pH 4.0, C) 5 mM sodium acetate, 240 mM propylene glycol, pH=4.0, D) 8 mM sodium phosphate, 250 mM glycerol, pH 7.5 or E) 20 mM sodium phosphate, 223 mM propylene glycol, pH 6.0.
Intravenously, the CNP compounds were dosed at 30-60 nmol/kg to Minipig and 15-43 nmol/kg to domestic pig using formulations A-E. Subcutaneously, the CNP compounds were dosed at 55-62 nmol/kg to Minipig and 20-30 nmol/kg to domestic pig using formulations A-D.
Sampling: Blood samples of approximately 1 mL were collected pre dose and up to 14 days post dose into EDTA-coated tubes (8 mM) for cGMP and CNP compound analysis by LC-MS. In few instances, cGMP was only analysed up to 48 hours post dose after intravenous dosing in domestic LYD pig. The blood samples were kept on wet ice for maximum 30 minutes until centrifugation for 10 minutes at 4° C. and minimum 1500G, and the plasma samples were stored at −20° C. until analysis.
Plasma concentration-time profiles were analyzed by non-compartmental PK analysis using Phoenix WinNonlin 8.1, Pharsight Inc., Mountain View, CA, USA. Calculation of the area under the plasma concentration-time curve (AUC) was based on the “linear up log down” method, and uniform weighting was used for estimation of the terminal rate constant (λz). S.c. bioavailability (F) was calculated as the dose-normalized AUC (AUC/dose) after s.c. administration divided by the AUC/dose after i.v. administration. […]

[2] = Telemetry measurement of heart rate and blood pressure in awake rats; assay type: in vivo, Sprague Dawley rat; conditions: for Heart rate: 30 min, P (vs vehicle) / Heart rate: 12 h, P (vs vehicle) / Mean arterial pressure: 30 min, P (vs vehicle) / Mean arterial pressure: 12 h, P (vs vehicle): paired t test; for Heart rate: 12 h, Mean (bpm) / Mean arterial pressure: 12 h, Mean (mmHg) / Heart rate: 30 min, Mean (bpm) / Mean arterial pressure: 30 min, Mean (mmHg): awake rats; for Heart rate: 12 h, Mean (bpm) / Mean arterial pressure: 12 h, Mean (mmHg): average of first 12 h; for Heart rate: 30 min, Mean (bpm) / Mean arterial pressure: 30 min, Mean (mmHg): first 30 min; for increase in HR: P<0.05
Method: The purpose of the study was to investigate the effect of acute dosing with the CNP compound 9482 (Chem. 137) on mean blood pressure (MAP) and heart rate (HR) in awake rats.
Procedure: The transducers are implanted in Sprague Dawley rats (Charles River) and the rats are allowed a 2-3-week period for recovery. Before surgery, the devices are registered in the software by placing them on a receiver plate and powered on. Sterile saline is added to the transducer catheter before surgery start, and the transmitter is then powered on. The transmitters are placed in the abdomen with the sensor in aorta abdominalis. Isoflurane is used as anaesthetic, and during and after surgery, the rats receive Temgesic (0.05 mg/kg s.c.), Norodyl (5 mg/kg s.c.), and Baytril (10 mg/kg s.c.) as pain relief and to prevent bacterial infection.
Study design: Rats are housed 2/cage (1 with device and 1 as social partner). All animals will have free access to water and food (altromin) throughout the entire study. The rats will be housed in light cycles with light from 6 AM to 6 PM and dark from 6 PM to 6 AM. Eight rats are divided into 2 groups according to a crossover study design.
Telemetry: Each rat is equipped with a transducer (HD-S10 from DSI) capable of measuring blood pressure, heart rate, and activity using Ponemah software with a 100 Hz frequency. During measurements, there should be no disturbances in the room that the rats are housed in to minimize variability in the data. A 4-hour baseline recording will be taken prior to start of the study to capture mean arterial pressure (MAP) and heart rate (HR) patterns in untreated, undisturbed rats. The recording period after drug administration was 24 hours.
Dosing scheme: Rats are dosed in a crossover study design with 4 rats in each group. Each rat is given a washout period of 1 week prior to the next dosing event. Dosing will be intravenous (IV) in the tail vein. Dosing of 9482 was tested in 30, 100, and 300 nmol/kg i.v. in separate experiments. The vehicle consists of 8 mM phosphate, 250 mM glycerol, pH 7.4.
Data analysis and statistics was conducted in Ponemah software and Graphpad prism. For statistics, a paired t test was applied with a confidence level of 95% and P<0.05 denoting statistical significance.

[3] = first 30 min after dosing, 30, 100, or 300 nmol/kg i.v.

bioavailability [1]: 25%
SMILES: CC[C@H](C)[C@@H]1NC(=O)[C@H](CCCNC(=N)N)NC(=O)[C@H](CC(=O)O)NC(=O)[C@H](CC(C)C)NC(=O)[C@H](CCCCN)NC(=O)[C@H](CC(C)C)NC(=O)CNC(=O)[C@H](Cc2ccccc2)NC(=O)[C@@H](NC(=O)CNC(=O)[C@H](CCCCN)NC(=O)[C@H](CO)NC(=O)[C@H](CC(C)C)NC(=O)CNC(=O)[C@H](CCCCN)NC(=O)[C@H](CCCCN)NC(=O)[C@H](CCC(N)=O)NC(=O)[C@H](C)NC(=O)CNC(=O)[C@H](Cc2c[nH]cn2)NC(=O)[C@H](CCC(=O)O)NC(=O)COCCOCCNC(=O)COCCOCCNC(=O)CC[C@H](NC(=O)CCCCCCCCCCCCCCCCC(=O)O)C(=O)O)CSSC[C@@H](C(=O)O)NC(=O)CNC(=O)[C@H](CC(C)C)NC(=O)CNC(=O)[C@H](CO)NC(=O)[C@H](CC(C)C)NC(=O)[C@H](CO)NC(=O)CNC1=O [compound 1235]

SMILES: CC[C@H](C)[C@@H]1NC(=O)[C@H](CCCNC(=N)N)NC(=O)[C@H](CC(=O)O)NC(=O)[C@H](CC(C)C)NC(=O)[C@@H]2CCCN2C(=O)[C@H](CC(C)C)NC(=O)CNC(=O)[C@H](Cc2ccccc2)NC(=O)[C@@H](NC(=O)CNC(=O)[C@H](CO)NC(=O)[C@H](CO)NC(=O)[C@H](CC(C)C)NC(=O)CNC(=O)[C@H](CCCCN)NC(=O)[C@H](CCCCN)NC(=O)[C@H](CCC(N)=O)NC(=O)[C@H](C)NC(=O)CNC(=O)[C@H](CCCCN)NC(=O)[C@H](Cc2ccc(O)cc2)NC(=O)[C@H](CCCCN)NC(=O)[C@H](CCCNC(=N)N)NC(=O)[C@H](C)NC(=O)[C@H](CCC(N)=O)NC(=O)[C@@H]2CCCN2C(=O)[C@H](Cc2c[nH]cn2)NC(=O)[C@H](CCC(=O)O)NC(=O)[C@H](CCC(N)=O)NC(=O)CC[C@H](NC(=O)CC[C@H](NC(=O)CC[C@H](NC(=O)CC[C@H](NC(=O)CC[C@H](NC(=O)CCCCCCCCCCCCCCCCC(=O)O)C(=O)O)C(=O)O)C(=O)O)C(=O)O)C(=O)O)CSSC[C@@H](C(=O)O)NC(=O)CNC(=O)[C@H](CC(C)C)NC(=O)CNC(=O)[C@H](CO)NC(=O)[C@H](CC(C)C)NC(=O)[C@H](CO)NC(=O)CNC1=O [compound 9482] ({C18 diacid-γGlu-γGlu-γGlu-γGlu-γGlu}-QEHPQARKYKGAQKKGLSSGCFGLPLDRIGSLSGLGC-OH; disulfide 21-37)
Heart rate: 30 min, P (vs vehicle) ([2]; 30 nmol/kg i.v.): ns
Heart rate: 12 h, P (vs vehicle) ([2]; 30 nmol/kg i.v.): ns
Mean arterial pressure: 30 min, P (vs vehicle) ([2]; 30 nmol/kg i.v.): ns
Mean arterial pressure: 12 h, P (vs vehicle) ([2]; 30 nmol/kg i.v.): ns
Heart rate: 30 min, P (vs vehicle) ([2]; 100 nmol/kg i.v.): ns
Heart rate: 12 h, P (vs vehicle) ([2]; 100 nmol/kg i.v.): 0.04
Mean arterial pressure: 30 min, P (vs vehicle) ([2]; 100 nmol/kg i.v.): ns
Mean arterial pressure: 12 h, P (vs vehicle) ([2]; 100 nmol/kg i.v.): ns
Heart rate: 30 min, P (vs vehicle) ([2]; 300 nmol/kg i.v.): ns
Heart rate: 12 h, P (vs vehicle) ([2]; 300 nmol/kg i.v.): 0.03
Mean arterial pressure: 30 min, P (vs vehicle) ([2]; 300 nmol/kg i.v.): ns
Mean arterial pressure: 12 h, P (vs vehicle) ([2]; 300 nmol/kg i.v.): ns
MAP compared to vehicle ([2]; average of the first 12 h, three tested doses i.v.): no differences
Heart rate: 12 h, Mean (bpm) ([2]; 30 nmol/kg i.v.): 332 bpm
Mean arterial pressure: 12 h, Mean (mmHg) ([2]; 30 nmol/kg i.v.): 106 mmHg
Heart rate: 30 min, Mean (bpm) ([2]; 30 nmol/kg i.v.): 356 bpm
Mean arterial pressure: 30 min, Mean (mmHg) ([2]; 30 nmol/kg i.v.): 116 mmHg
Heart rate: 12 h, Mean (bpm) ([2]; 100 nmol/kg i.v.): 364 bpm
Mean arterial pressure: 12 h, Mean (mmHg) ([2]; 100 nmol/kg i.v.): 104 mmHg
Heart rate: 30 min, Mean (bpm) ([2]; 100 nmol/kg i.v.): 388 bpm
Mean arterial pressure: 30 min, Mean (mmHg) ([2]; 100 nmol/kg i.v.): 114 mmHg
Heart rate: 12 h, Mean (bpm) ([2]; 300 nmol/kg i.v.): 355 bpm
Mean arterial pressure: 12 h, Mean (mmHg) ([2]; 300 nmol/kg i.v.): 102 mmHg
Heart rate: 30 min, Mean (bpm) ([2]; 300 nmol/kg i.v.): 370 bpm
Mean arterial pressure: 30 min, Mean (mmHg) ([2]; 300 nmol/kg i.v.): 111 mmHg
HR compared to vehicle [2, 3]: no difference
MAP compared to vehicle [2, 3]: no difference
change in HR ([2]; first 12 h, 30 nmol/kg i.v.): No change
increase in HR ([2]; first 12 h, 100 nmol/kg i.v.): 8.8±10.1%
increase in HR ([2]; first 12 h, 300 nmol/kg i.v.): 6.4±6.6%

Source: patent US20240209028A1, “CNP COMPOUNDS” (priority 2022, published 2024)
